According to US10688131B2, “Peptides and scaffolds for use in immunotherapy against head and neck squamous cell carcinoma and other cancers” (Immatics Biotechnologies GmbH, priority 2016, dated 2020):

Legend:
CD8+ T cells = experiment: In vitro T-cell priming assay with aAPCs loaded with peptide/MHC complexes and anti-CD28 antibody, pMHC multimer readout; type: cell-based, human; conditions: percentage of positive wells among evaluable, HLA-A*02 restricted peptides
Excerpt: In order to obtain information regarding the immunogenicity of the TUMAPs of the present invention, the inventors performed investigations using an in vitro T-cell priming assay based on repeated stimulations of CD8+ T cells with artificial antigen presenting cells (aAPCs) loaded with peptide/MHC complexes and anti-CD28 antibody.
In order to perform in vitro stimulations by artificial antigen presenting cells loaded with peptide-MHC complex (pMHC) and anti-CD28 antibody, the inventors first isolated CD8+ T cells from fresh HLA-A*02 leukapheresis products via positive selection using CD8 microbeads (Miltenyi Biotech, Bergisch-Gladbach, Germany) of healthy donors obtained from the University clinics Mannheim, Germany, after informed consent.
PBMCs and isolated CD8+ lymphocytes were incubated in T-cell medium (TCM) until use consisting of RPMI-Glutamax (Invitrogen, Karlsruhe, Germany) supplemented with 10% heat inactivated human AB serum (PAN-Biotech, Aidenbach, Germany), 100 U/ml Penicillin/100 μg/ml Streptomycin (Cambrex, Cologne, Germany), 1 mM sodium pyruvate (CC Pro, Oberdorla, Germany), 20 μg/ml Gentamycin (Cambrex). 2.5 ng/ml IL-7 (PromoCell, Heidelberg, Germany) and 10 U/ml IL-2 (Novartis Pharma, Nürnberg, Germany) were also added to the TCM at this step.
Generation of pMHC/anti-CD28 coated beads, T-cell stimulations and readout was performed in a highly defined in vitro system using four different pMHC molecules per stimulation condition and 8 different pMHC molecules per readout condition.
The purified co-stimulatory mouse IgG2a anti human CD28 Ab 9.3 (Jung et al., 1987) was chemically biotinylated using Sulfo-N-hydroxysuccinimidobiotin as recommended by the manufacturer (Perbio, Bonn, Germany). Beads used were 5.6 μm diameter streptavidin coated polystyrene particles (Bangs Laboratories, Illinois, USA).
pMHC used for positive and negative control stimulations were A*0201/MLA-001 (peptide […] (SEQ ID NO. 157) from modified Melan-A/MART-1) and A*0201/DDX5-001 ([…] from DDX5, SEQ ID NO. 158), respectively.
800.000 beads/200 μl were coated in 96-well plates in the presence of 4×12.5 ng different biotin-pMHC, washed and 600 ng biotin anti-CD28 were added subsequently in a volume of 200 μl. Stimulations were initiated in 96-well plates by co-incubating 1×10^6 CD8+ T cells with 2×10^5 washed coated beads in 200 μl TCM supplemented with 5 ng/ml IL-12 (PromoCell) for 3 days at 37° C. Half of the medium was then exchanged by fresh TCM supplemented with 80 U/ml IL-2 and incubating was continued for 4 days at 37° C. This stimulation cycle was performed for a total of three times. For the pMHC multimer readout using 8 different pMHC molecules per condition, a two-dimensional combinatorial coding approach was used as previously described (Andersen et al., 2012) with minor modifications encompassing coupling to 5 different fluorochromes. Finally, multimeric analyses were performed by staining the cells with Live/dead near IR dye (Invitrogen, Karlsruhe, Germany), CD8-FITC antibody clone SK1 (BD, Heidelberg, Germany) and fluorescent pMHC multimers. For analysis, a BD LSRII SORP cytometer equipped with appropriate lasers and filters was used. Peptide specific cells were calculated as percentage of total CD8+ cells. Evaluation of multimeric analysis was done using the FlowJo software (Tree Star, Oregon, USA). In vitro priming of specific multimer+CD8+ lymphocytes was detected by comparing to negative control stimulations.
Exemplary flow cytometry results after TUMAP-specific multimer staining for 2 peptides of the invention are shown in FIGS. 3A and 3B together with corresponding negative controls. Additional exemplary flow cytometry results after TUMAP-specific multimer staining for 3 peptides of the invention are shown in FIGS. 4A-4C together with corresponding negative controls.

HLA-A*02:01 = HLA-A*02:01 (Homo sapiens, UniProt P04439, D140Y/D185E/D98H/E176V/E277Q/G131W/G231S/I119V/I121R/I166T/I218V/L300P/L318F/N151K/N90K/P208A/P217A/Q86G/Q94H/R138H/R169H/T345S); experiment: MHC binding assay: UV-ligand exchange with β2m ELISA; conditions: binding of HLA-class I restricted peptides to HLA-A*02:01
Excerpt: Candidate peptides for T cell based therapies according to the present invention were further tested for their MHC binding capacity (affinity). The individual peptide-MHC complexes were produced by UV-ligand exchange, where a UV-sensitive peptide is cleaved upon UV-irradiation, and exchanged with the peptide of interest as analyzed. Only peptide candidates that can effectively bind and stabilize the peptide-receptive MHC molecules prevent dissociation of the MHC complexes. To determine the yield of the exchange reaction, an ELISA was performed based on the detection of the light chain (β2m) of stabilized MHC complexes. The assay was performed as generally described in Rodenko et al. (Rodenko et al., 2006).
96 well MAXISorp plates (NUNC) were coated over night with 2 ug/ml streptavidin in PBS at room temperature, washed 4× and blocked for 1 h at 37° C. in 2% BSA containing blocking buffer. Refolded HLA-A*02:01/MLA-001 monomers served as standards, covering the range of 15-500 ng/ml. Peptide-MHC monomers of the UV-exchange reaction were diluted 100-fold in blocking buffer. Samples were incubated for 1 h at 37° C., washed four times, incubated with 2 ug/ml HRP conjugated anti-β2m for 1 h at 37° C., washed again and detected with TMB solution that is stopped with […]. Absorption was measured at 450 nm. Candidate peptides that show a high exchange yield (preferably higher than 50%, most preferred higher than 75%) are generally preferred for a generation and production of antibodies or fragments thereof, and/or T cell receptors or fragments thereof, as they show sufficient avidity to the MHC molecules and prevent dissociation of the MHC complexes.

Row | Peptide exchange (MHC class I binding score, peptide exchange yield) (HLA-A*02:01) | Substance | Wells positive [%] (CD8+ T cells)
1 | ++++ (>75% = ++++) | 8 (AQLNIGNVLPV; listed as Homo sapiens) [compound 8] | + (<20% = +)
2 | +++ (>50 = +++) | 16 (ALKDSVQRA; listed as Homo sapiens) [compound 16] | + (<20% = +)
3 | +++ (>50 = +++) | 82 (VLDINDNPPV; listed as Homo sapiens) [compound 82] | + (<20% = +)
4 | +++ (>50 = +++) | 30 (TLASLGYAVV; listed as Homo sapiens) [compound 30] | +++ (50%-69% = +++)
5 | ++++ (>75% = ++++) | 18 (YLYPDLSRL; listed as Homo sapiens) [compound 18] | + (<20% = +)
6 | ++++ (>75% = ++++) | 17 (SIWPALTQV; listed as Homo sapiens) [compound 17] | ++++ (>=70% = ++++)
7 | +++ (>50 = +++) | 26 (TLVDENQSWYL; listed as Homo sapiens) [compound 26] | ++ (20%-49% = ++)
8 | ++++ (>75% = ++++) | 28 (AVDPVSGSLYV; listed as Homo sapiens) [compound 28] | +++ (50%-69% = +++)
